From ChEMBL document CHEMBL1149427 (Bioorg Med Chem Lett, 2006) come the findings set out here.

SMILES strings stand for the structures.

Assay [1] has as its target Histamine H1 receptor (Cavia porcellus) (UniProt P31389). Briefly: (§1) Agonist activity at histamine H1 receptor in guinea pig ileum. The format is functional, tissue-based.
For assay [2], the target named is Histamine H1 receptor (Cavia porcellus, UniProt P31389). Described as §1. The format is functional, tissue-based.
Assay [3] addresses Histamine H1 receptor (Cavia porcellus) (UniProt P31389). Briefly: Agonist activity at histamine H1 receptor in guinea pig ileum in presence of mepyramine. The format is functional, tissue-based.
For assay [4] the target is unchanged. Briefly: Functional activity at the histamine H1 receptor in guinea pig ileum. The format is tissue-based.

Histamine H1 receptor (Cavia porcellus), sequence (P31389 whole entry): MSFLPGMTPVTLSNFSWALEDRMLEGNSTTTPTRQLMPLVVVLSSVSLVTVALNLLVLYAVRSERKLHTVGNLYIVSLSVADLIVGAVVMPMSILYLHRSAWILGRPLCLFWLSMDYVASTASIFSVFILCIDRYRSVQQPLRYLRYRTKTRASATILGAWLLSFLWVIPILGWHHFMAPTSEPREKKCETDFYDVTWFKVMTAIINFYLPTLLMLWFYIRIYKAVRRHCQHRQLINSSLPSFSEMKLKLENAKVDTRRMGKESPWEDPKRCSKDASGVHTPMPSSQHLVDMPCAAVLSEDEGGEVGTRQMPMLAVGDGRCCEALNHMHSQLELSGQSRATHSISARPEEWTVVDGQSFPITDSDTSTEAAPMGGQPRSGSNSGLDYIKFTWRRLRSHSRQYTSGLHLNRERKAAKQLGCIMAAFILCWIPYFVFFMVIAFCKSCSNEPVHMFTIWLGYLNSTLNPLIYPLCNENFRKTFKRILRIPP
Histamine H1 receptor, sequence (P31389 whole entry): as above

Turning to `NCCc1c[nH]c(C(=O)CC(c2ccccc2)c2ccccc2)n1`, in assay [1], the Activity was found to be 12% and the Emax (commonly the greatest response seen or fitted, relative to the assay's reference) was 75%. Also, the response in assay [2] was half-maximal at 1.66 µM (EC50). The Emax in assay [3] turned out to be 47%.

Regarding `COC(=O)[C@@H](N)[C@H](O)c1c[nH]c(C(=O)CC(c2ccccc2)c2ccccc2)n1`, the maximal response (Emax) in assay [1] is 0%. The compound further had a pD'2 in assay [4] of 4.61.

For `COC(=O)C(N)C(O)c1c[nH]c(C(=O)CC(c2ccccc2)c2ccccc2)n1` (racemic), the Emax in assay [1] is 0%. This compound showed a pD'2 in assay [4] of 3.8.

`COCCOCn1cc(CCN)nc1C(=O)CC(c1ccccc1)c1ccccc1` registered an Emax in assay [1] of 0%. In assay [4], this compound yielded a pD'2 of 5.05.

Regarding `NCCc1c[nH]cn1`, the Activity in assay [1] turned out to be 100%.

`N[C@H](CO)[C@H](O)c1c[nH]c(C(=O)CC(c2ccccc2)c2ccccc2)n1` came in with an Emax in assay [1] of 0%. In assay [4], this compound returned a pD'2 of 4.08.
